We go through two compounds from patent publication US3935255A, “Phenylacetic acid derivatives” (Laboratoires Jacques Logeais, priority 1973, dated 1976).

Data set [1] is described as follows: Koster test (analgesic action). Format: in vivo. To be noted: po. The text has this:
(§1) Said properties were evidenced in animals by means of conventional pharmacological tests.
Analgesic action: Koster test (cf. KOSTER and ANDERSON. Feder. Proceed., 1959, 18, 412)

Data set [2] can be described thus: LD50 (acute toxicity). The conditions noted are these: in vivo.
Data set [3] has as its system fever induced by injection of barm. Description: Antipyretic action against fever induced by injection of barm, in rats. The conditions noted are these: p.o. Type of data set: in vivo.
Excerpt: as §1
Antipyretic action, against fever induced by injection of barm, in rats.

In data set [4] the test system is carrageenin-induced edema. In words: Carrageenin-induced edema in rats (anti-inflammatory action). Type of data set: in vivo. The conditions noted are these: Rattus norvegicus, po.
Excerpt: as §1
(§2) Anti-inflammatory action:
carrageenin-induced edema in rats (cf. WINTER, RISLEY and MUSS, Proc. Soc. Exp. Biol. Med., 1962, 111, 544),
A general note: Carrageenan injected into the paw causes an acute inflammation.

Data set [5] has as its system adjuvant-induced polyarthritis. Description: Adjuvant-induced polyarthritis in rats (anti-inflammatory action). Format: in vivo. To be noted: Rattus norvegicus, 336 h, p.o., oral dosage which decreases by at least 50% the manifestations of arthritis within 14 days.
Excerpt: as §1, §2
adjuvant-induced polyarthritis in rats, determination of the oral dosage (mg/kg/day) which decreases by at least 50% the manifestations of arthritis within 14 days.

The subject of data set [6] is ultraviolet-induced erythema. In words: Ultraviolet-induced erythema in guinea-pigs (anti-inflammatory action). Format: in vivo. The conditions noted are these: Cavia porcellus, po, read-out: UV-induced erythema ED50.
Excerpt: as §1, §2
ultraviolet-induced erythema in guinea-pigs (cf. WINTER, Arch. Int. Pharmaco., 1958, 116, 261),

Like-named read-outs stand apart in the source and are kept apart here.

By ED50 is commonly meant the dose at which the effect has come halfway, by size or by number of responders. As usually defined, the LD50 is the dose expected to kill half of the subjects tested. Compound `CC(C(=O)O)c1ccc(C2=CC(=NO)CCC2)cc1` (stereo not drawn) [Example 1, 2-[4-(3'-Hydroxyimino-cyclohexen-1'-yl)-phenyl]propionic acid] gave an ED50 in data set [1] of 30 to 50 mg/kg. Further, the LD50 in data set [2] (ip, I.P., read-out: LD50 I.P.) is over 100 mg/kg; in data set [2] (po, P.O., read-out: LD50 P.O.), over 100 mg/kg. In data set [3], the Antipyretic action stood at 30 mg·kg. This compound came in with an ED40 in data set [4] of 2.2 mg/kg.

`CC(C(=O)O)c1ccc(C2CCCC(=NO)C2)cc1` (stereo not drawn) [Example 2, 2-[4-(3'-Hydroxyimino-cyclohexyl)phenyl]propionic acid]: the ED50 worked out at 4.5 mg/kg in data set [1], 0.9 mg/kg in data set [5] and 2 mg/kg in data set [6]. For the same compound, the LD50 is over 200 mg/kg in data set [2] (ip, I.P., read-out: LD50 I.P.) and over 200 mg/kg in data set [2] (po, P.O., read-out: LD50 P.O.). Also, the Antipyretic action in data set [3] came to 3 mg·kg. The compound further gave an ED40 in data set [4] of 0.25 mg/kg.
